Legend:
[1] = test system: giant reticulospinal (RS) neurons; set-up: species or system Petromyzon marinus; conditions: in vivo
[2] = test system: giant reticulospinal (RS) neurons; set-up: species or system Petromyzon marinus; conditions: in vivo; remark: listed apart in the source
α-synuclein = α-synuclein (Homo sapiens, UniProt P37840); conditions: cited from earlier work
[3] = test system: α-synuclein neurotoxicity; conditions: in vivo; cited from earlier work
lamprey γ-synuclein = format: biochemical, Petromyzon marinus; conditions: 100 pM synuclein, varying CLR01 concentrations
Procedure: After purification of GST-tagged lamprey γ-synuclein, GST was cleaved off using thrombin (10 U/mg protein; GE Healthcare). Untagged γ-synuclein was then separated from GST and thrombin using Glutathione Sepharose 4B beads and p-aminobenzamidine agarose ([…]/50 U thrombin; Sigma A7155), respectively, and dialyzed into 0.1M PBS, pH 7.4. Aggregation of the purified lamprey γ-synuclein was analyzed using the thioflavin T (ThT) fluorescence assay and electron microscopy as described previously (Roychaudhuri et al. (2014) J. Mol. Biol. 426: 2422-2441), except that 100 pM synuclein and varying CLR01 concentrations were used.

[4] = test system: Aβ and hyperphosphorylated tau; conditions: mouse, in vivo; cited from earlier work

| Compound | synuclein immunofluorescence intensity in good survivors [1] [AU] | synuclein immunofluorescence intensity in poor survivors [1] [AU] | survival of the giant RS neurons at the population level (Nissl (+)) [2] | synuclein immunofluorescence intensity in "good survivors" [1] [AU] | synuclein immunofluorescence intensity in "poor survivors" [1] [AU] | increase in neuronal survival across the entire RS neuron population [2] [%] | increase of percentage of Nissl (+) "poor survivors" [2] | effect on α-synuclein clearance in vitro (α-synuclein) | effect on α-synuclein self-assembly and toxicity in vitro (α-synuclein) | effect on neurodegeneration and survival in zebrafish model [3] | inhibition of lamprey γ-synuclein aggregation (ThT fluorescence) (lamprey γ-synuclein) | effect on accumulation of Aβ and hyperphosphorylated tau [4] |
| --- | --- | --- | --- | --- | --- | --- | --- | --- | --- | --- | --- | --- |
| 5′-[…]-3′ [Con MO] | 25.7±1.9 | 42.6±3.5 | 56.7±5.7 |  |  |  |  |  |  |  |  |  |
| 5′-CGC cTg CAT TgC TCT TTg TTT cTC T-3′ [MM MO] | 26.0±2.4 | 40.7±3.7 | 60.0±8.0 |  |  |  |  |  |  |  |  |  |
| O=P(O)(O)Oc1c2c(c(OP(=O)(O)O)c3c1[C@H]1C[C@@H]3c3cc4c(cc31)[C@H]1C[C@@H]4c3ccccc31)[C@H]1C[C@@H]2c2cc3c(cc21)[C@H]1C[C@@H]3c2ccccc21 [CLR01] |  |  |  | 5.6±1.3 | 25.7±3.1 | 22 | more than 4 fold | facilitates α-synuclein clearance in vitro | inhibits a-synuclein self-assembly and toxicity in vitro | reduces neurodegeneration and improves survival | inhibited by CLR01 in a dose-dependent manner | reduce accumulation of Aβ and hyperphosphorylated tau |
